Test results reported in the NIST ThermoML archive (doi:10.1016/j.jct.2015.02.017).

Assay: mn = molality of the nth substance listed, in mol/kg
Conditions: 298.15 K, 101 kPa, Liquid; for viscosity: Capillary tube (Ostwald / Ubbelohde) method; for mass density: Vibrating tube method

C[n+]1ccn(CCCCn2cc[n+](C)c2)c1.[Br-].[Br-] + O
Conditions | mass density [kg/m3] | viscosity [mPa·s]
m1 = 0.0993 | 1009.54 | 0.94
m1 = 0.1398 | 1014.42 | 0.958
m1 = 0.1597 | 1016.78 | 0.967
m1 = 0.1794 | – | 0.977
m1 = 0.194 | 1020.81 | 0.984
m1 = 0.2187 | 1023.65 | 0.996
m1 = 0.2485 | 1027.04 | 1.008

C[n+]1ccn(CCCCCCn2cc[n+](C)c2)c1.[Br-].[Br-] + O
Conditions | mass density [kg/m3] | viscosity [mPa·s]
m1 = 0.0407 | – | 0.917
m1 = 0.0814 | 1006.92 | –
m1 = 0.0989 | – | 0.953
m1 = 0.1 | 1009.1 | –
m1 = 0.1196 | – | 0.966
m1 = 0.1206 | 1011.5 | –
m1 = 0.1403 | 1013.75 | 0.98
m1 = 0.1604 | – | 0.993
m1 = 0.1772 | 1017.94 | –
m1 = 0.2001 | – | 1.02

O=C[C@H](O)[C@@H](O)[C@H](O)[C@H](O)CO [D-glucose] + O
Conditions | mass density [kg/m3] | viscosity [mPa·s]
m1 = 0.2 | 1010.41 | 0.975
m1 = 0.4 | 1023.12 | 1.068
m1 = 0.8 | 1046.88 | 1.28
m1 = 1.2 | 1068.58 | 1.532
m1 = 1.6 | 1088.48 | 1.83

C[n+]1ccn(CCCCCn2cc[n+](C)c2)c1.[Br-].[Br-] + O
Conditions | mass density [kg/m3] | viscosity [mPa·s]
m1 = 0.05 | 1003.25 | 0.917
m1 = 0.0825 | 1007.17 | –
m1 = 0.0967 | – | 0.943
m1 = 0.1108 | 1010.53 | 0.949
m1 = 0.1389 | – | 0.966
m1 = 0.1522 | 1015.32 | –
m1 = 0.1621 | – | 0.979
m1 = 0.1929 | – | 0.996
m1 = 0.2152 | 1022.44 | –
